Earlier results on one molecule are cited in patent publication US7767688B2, “Combination of pyrimidylaminobenzamide compounds and imatinib for treating gastrointestinal stromal tumours” (Novartis AG, priority 2005, dated 2010).

Molecules are shown by their SMILES.

The target of the series is PDGFRA V561D juxtamembrane domain mutation (Homo sapiens, UniProt P16234, V561D). As to conditions: V561D compared with D842V kinase domain mutation.
Sequence of PDGFRA V561D juxtamembrane domain mutation (P16234 24-1089 V561D): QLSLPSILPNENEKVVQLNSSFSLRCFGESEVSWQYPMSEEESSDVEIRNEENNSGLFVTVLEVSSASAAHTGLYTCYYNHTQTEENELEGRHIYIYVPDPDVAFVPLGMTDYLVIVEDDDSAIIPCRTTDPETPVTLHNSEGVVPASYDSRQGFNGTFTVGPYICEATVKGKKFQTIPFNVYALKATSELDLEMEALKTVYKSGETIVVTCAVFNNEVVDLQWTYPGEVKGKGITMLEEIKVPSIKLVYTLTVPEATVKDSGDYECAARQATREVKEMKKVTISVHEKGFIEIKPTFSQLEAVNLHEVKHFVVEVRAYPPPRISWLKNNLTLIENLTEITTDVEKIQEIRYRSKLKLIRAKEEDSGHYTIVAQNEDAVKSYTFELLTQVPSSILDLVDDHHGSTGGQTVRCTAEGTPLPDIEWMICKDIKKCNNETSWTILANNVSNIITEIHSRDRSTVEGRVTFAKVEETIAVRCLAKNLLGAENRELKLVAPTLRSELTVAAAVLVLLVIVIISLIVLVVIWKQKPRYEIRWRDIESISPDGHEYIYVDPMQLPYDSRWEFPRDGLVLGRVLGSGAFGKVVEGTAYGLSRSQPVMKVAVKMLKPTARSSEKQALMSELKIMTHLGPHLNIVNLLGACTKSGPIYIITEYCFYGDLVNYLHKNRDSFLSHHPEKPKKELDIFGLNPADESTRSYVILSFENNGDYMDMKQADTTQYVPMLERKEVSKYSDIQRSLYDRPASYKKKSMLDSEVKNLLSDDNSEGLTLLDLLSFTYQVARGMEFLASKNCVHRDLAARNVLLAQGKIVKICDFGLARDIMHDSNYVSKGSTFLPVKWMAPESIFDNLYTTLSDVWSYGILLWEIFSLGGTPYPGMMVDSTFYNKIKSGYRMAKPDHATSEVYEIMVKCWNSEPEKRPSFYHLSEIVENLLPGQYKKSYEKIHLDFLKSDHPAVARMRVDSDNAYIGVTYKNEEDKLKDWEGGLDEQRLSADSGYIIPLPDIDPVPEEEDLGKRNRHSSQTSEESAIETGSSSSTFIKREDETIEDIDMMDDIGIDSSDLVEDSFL

`Cc1ccc(NC(=O)c2ccc(CN3CCN(C)CC3)cc2)cc1Nc1nccc(-c2cccnc2)n1` [imatinib]: the “Sensitivity to imatinib by location of PDGFRA mutation” value is given as “more sensitive to imatinib than the D842V kinase domain mutation”.
